The text below walks through data of PubChem BioAssay AID2124 (Sanford-Burnham Center for Chemical Genomics, 2009).

The test is described as follows: GFP-wavelength compound autofluorescence in cells – imaging, high-content imaging, artefact control, dose response (AID 2124).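 On all read-outs here: cells exposed to compound for 48 hours before fixing.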 The conditions noted are these: cells, GFP-channel autofluorescence, high-content imaging, at 10 µM; for z-score: stronger effect = higher value.

Results filed as inconclusive are left out. The source made the active and inactive calls. How the calls were made is not given here; tested in MIN6 cells.

`CCOc1ccc(C2C(C(=O)O)c3ccccc3C(=O)N2CCN2CCOCC2)cc1` (stereo unspecified): the z-score was -0.39 (inactive) and the cell count was determined as 3370 cells.

As for `COCCNC(=O)c1onc(CSc2cccc(C)c2)c1C(=O)O`, the z-score was -0.39 (inactive) and the cell count was 3170 cells.

`C/C(=N\S(=O)(=O)c1ccc(C)cc1)N1CCN(S(=O)(=O)c2ccccc2)C1`: the z-score is -0.38 (inactive) and the cell count turned out to be 3140 cells.

Consider `O=C(C1=C[C@H](C2CC2)C[C@H](OCCCCO)O1)N1CCN(Cc2ccccc2)CC1`, for which the z-score is -0.38 (inactive) and the cell count is 2880 cells.

Take `CCOc1cc(N(CC)CC)ccc1/C=C(/C#N)c1nc2ccccc2[nH]1`: the z-score was 1.08 and the cell count was determined as 1870 cells.

For `Cc1cccc(NC(=O)Nc2ccc(C#N)cc2)n1`, the z-score is -0.32 (inactive) and the cell count worked out at 2800 cells.

`Cc1nc2c(oc3ccccc32)c(=O)o1`: the z-score is -0.33 (inactive) and the cell count is 3020 cells.

For `Nc1c(C(=O)c2cccs2)sc2nsc(SCCN3CCCCC3)c12`, the z-score was 0.3 and the cell count turned out to be 2930 cells.

For the compound `CCOC(=O)CC1C(=O)NCCN1c1nc2ccc(C)cn2c(=O)c1/C=C1\SC(=S)N(CC(C)C)C1=O` (stereo unspecified), the z-score was 0.66 and the cell count was found to be 3220 cells.

In the case of `Cc1cc(NC(=O)/C(C#N)=C/c2ccc(-c3ccc(SC(F)F)cc3)o2)n(-c2ccccc2)n1`, the z-score is 0.3 and the cell count came to 2190 cells.

Regarding `Cc1ccc(C(=O)NN2C(=O)/C(=C/c3cn(C)c4ccccc34)SC2=S)cc1`, the z-score is -0.27 (inactive) and the cell count is 3060 cells.

In the case of `Nc1c(C(=O)C2CC2)sc2nc(-c3cccs3)cc(C(F)(F)F)c12`, the z-score is 0.95 and the cell count is 2750 cells.

Consider `CCOC(=O)COc1ccc(C(=O)NC2CCCCC2)cc1`, for which the z-score is -0.38 (inactive) and the cell count was determined as 3240 cells.

Consider `Cc1ccc(C)c(NC(=O)C(C)CC2COCCO2)c1` (stereo unspecified), for which the z-score is -0.38 (inactive) and the cell count stood at 3230 cells.

For `CCC(=O)Nc1ccc2c(c1)ncn2-c1ccccc1`, the z-score is -0.34 (inactive) and the cell count worked out at 3260 cells.

For the compound `O=C1/C(=C/c2ccc(N3CCOCC3)o2)SC(=Nc2ccccc2)N1CCc1c[nH]c2ccccc12`, the z-score is 2.67 and the cell count came out at 192 cells.

For the compound `O=C1C2C3C=CC(C3)C2C(=O)N1CCc1ccccc1` (stereo unspecified), the z-score is -0.33 (inactive) and the cell count was 3430 cells.

With `O=C(c1ccc2c(c1)OCO2)N1CCCC1`, the z-score was -0.33 (inactive) and the cell count is 2960 cells.

For `CCOC(=O)c1nn(-c2ccc(Cl)cc2Cl)c(=N)c(C#N)c1C`, the z-score was 0.25 and the cell count came out at 2790 cells.

As for `CC(=O)Oc1ccc2c(c1)Oc1cc(OC(C)=O)ccc1C21OC(=O)c2ccccc21`, the z-score was 4.32 and the cell count was 3270 cells.

In the case of `CCN(CC)C(=O)c1sc2nc(-c3cccs3)cc(-c3cccs3)c2c1N`, the z-score was -0.2 (inactive) and the cell count was 3420 cells.

`CCCCN(C)C1=CC2=CC(=C(C#N)C#N)CCC2CC1` (stereo unspecified): the z-score is 11.3 and the cell count is 3120 cells.

As to `Cc1ccccc1C(=O)N1CCc2ccccc2C1`, the z-score was -0.39 (inactive) and the cell count was found to be 3270 cells.

As for `Cn1c(=O)c(N)c2c3c(c(Br)ccc31)C(=O)c1ccccc1-2`, the z-score was 0.12 and the cell count amounted to 3210 cells.

As to `COc1cc([N+](=O)[O-])ccc1-c1ccc(/C=N/NC(N)=O)o1`, the z-score was -0.34 (inactive) and the cell count is 2860 cells.

`N#C/C(=C\c1ccc(N2CCCCC2)o1)C(=O)Nc1cccc(Br)c1`: the z-score is 3.15 and the cell count amounted to 2780 cells.

For `Cc1[nH]c2ccccc2c1/C=N/Nc1ccc([N+](=O)[O-])cc1`, the z-score was 0.2 and the cell count was 1600 cells.

Regarding `O=c1[nH]c(/C=C/c2ccccc2OC(F)F)nc2c1cnn2-c1ccccc1`, the z-score is -0.38 (inactive) and the cell count was 2240 cells.

Consider `CC1=CN2C(=N)/C(=C/c3ccc([N+](=O)[O-])o3)C(=O)N=C2S1`, for which the z-score was 0.75 and the cell count stood at 348 cells.

Take `CCOC(=O)c1ccc(CSc2nnc(-c3ccncc3)n2N)cc1`: the z-score is -0.33 (inactive) and the cell count was 3110 cells.

Take `COc1ccc2cc3cc(C(=O)NCc4ccccn4)oc3nc2c1`: the z-score is -0.38 (inactive) and the cell count came out at 3310 cells.

On to `O=[N+]([O-])c1ccc(N(c2ccccc2)c2ccccc2)cc1`, for which the z-score was -0.32 (inactive) and the cell count was found to be 2510 cells.

`CC(C)C(c1nnnn1C1CCCC1)N1CCOCC1` (stereo unspecified): the z-score was -0.33 (inactive) and the cell count was found to be 3180 cells.

With `CCCCN1C(=O)/C(=C/C=C2/CC(C)(C)CN2C)SC1=S`, the z-score was 0.43 and the cell count was determined as 2800 cells.

Consider `COCc1cc(C)nc(Nc2ccccc2C)c1C#N`, for which the z-score was -0.34 (inactive) and the cell count amounted to 3240 cells.

`CC(C)SC1=NC(C)(C)C=C(/C=C/c2ccc(Cl)cc2Cl)N1`: the z-score is -0.36 (inactive) and the cell count turned out to be 2940 cells.

Consider `O=[N+]([O-])c1ccc(C2=NN(c3ccccc3)C(c3ccco3)C2)cc1` (stereo unspecified), for which the z-score was 0.17 and the cell count turned out to be 3180 cells.

For the compound `O=C(NCC1CCCO1)C1CCN(S(=O)(=O)N2CCCC2)CC1` (stereo unspecified), the z-score is -0.33 (inactive) and the cell count was determined as 3190 cells.

Take `Cc1ccc(C(=O)NCCCn2ccnc2)cc1[N+](=O)[O-]`: the z-score is -0.39 (inactive) and the cell count was found to be 3010 cells.

Regarding `COc1cccc(N2CCN(c3ncccn3)CC2)c1`, the z-score was -0.33 (inactive) and the cell count stood at 3230 cells.

On to `COc1cccc(NC(=O)N2CCN(c3nnnn3-c3ccccc3)CC2)c1`, for which the z-score is -0.33 (inactive) and the cell count came to 2880 cells.

For `COc1ccc(Cl)cc1NC(=O)c1c(-c2ccccc2)noc1C`, the z-score is -0.39 (inactive) and the cell count was 3300 cells.

Regarding `CCN1/C(=C/c2ccc3cc(C)ccc3[n+]2CC)Sc2ccccc21`, the z-score is 1.64 and the cell count turned out to be 190 cells.

With `COc1ccc2nc(SCC(=O)Nc3c(C)cccc3C)[nH]c2c1`, the z-score is -0.39 (inactive) and the cell count was 3480 cells.

Consider `O=c1c([N+](=O)[O-])cccn1Cc1ccc(F)cc1Cl`, for which the z-score was -0.38 (inactive) and the cell count was 2960 cells.

`COc1cccc(/C=N/NC(=O)CCn2cnc3ccccc32)c1`: the z-score is -0.33 (inactive) and the cell count was determined as 3250 cells.

`Cc1cccc2sc(NNC(=O)c3ccc4c(c3)OCCO4)nc12`: the z-score was -0.39 (inactive) and the cell count turned out to be 3230 cells.

Take `COC1=CCC2([N+](=O)[O-])CN(CCO)CC1([N+](=O)[O-])C2` (stereo unspecified): the z-score was -0.33 (inactive) and the cell count was found to be 3440 cells.
